# Data: paper PMC9505538, “P-Glycoprotein (MDR1/ABCB1) Restricts Brain Accumulation of the Novel EGFR Inhibitor EAI045 and Oral Elacridar Coadministration Enhances Its Brain Accumulation and Oral Exposure” (Pharmaceuticals, 2022)
# How the values were obtained:
# [1] = mouse, in vivo
# From the text: (§1) Mice (Mus musculus) were bred in the Netherlands Cancer Institute and housed and handled according to institutional guidelines complying with Dutch and EU legislation. Animals used were WT, Abcb1a/1b^-/- [39], Abcg2^-/- [40], Abcb1a/1b;Abcg2^-/- [41], Cyp3a^-/- [42], and Oatp1a/1b^-/- [43] mice of a >99% FVB/N strain background. Homozygous CYP3A4 humanized transgenic mice (Cyp3aXAV) were generated by cross-breeding of transgenic mice with stable human CYP3A4 expression in the liver or intestine, respectively, in a Cyp3a^-/- background. Proper functionality of the knockout and transgenic strains was monitored by regular testing with a variety of drug substrates. All the mice used were between 10 and 15 weeks of age. Animals were kept in a temperature-controlled environment with a 12 h light/12 h dark cycle and received a standard diet (Transbreed, SDS Diets, Technilab-BMI, The Netherlands) and acidified water ad libitum. Depending on the type of experiment, 5 or 6 mice were tested in each experimental group. All experimental animal protocols, including power calculations, were ethically assessed and designed under the nationally approved DEC/CCD project AVD301002016595 (approval date, 10 August 2016) and evaluated and approved by the institutional animal care and use committee (IACUC) of the Netherlands Cancer Institute.
# (§2) EAI045 was dissolved in dimethyl sulfoxide (DMSO) at a concentration of […], and then diluted with a mixture of polysorbate 80/ethanol (1:1, v/v), and further diluted with 5% (w/v) glucose in water to yield a concentration of 2 mg/mL. Final concentrations for DMSO, polysorbate 80, ethanol, and glucose in the dosing solution were 5%, 2.5%, 2.5%, and 4.5% (v/v/v/w), respectively. Elacridar hydrochloride was dissolved in DMSO at a concentration of 53 mg/mL, then diluted with a mixture of polysorbate 80, ethanol, and water [20:13:67, (v/v/v)] to yield a concentration of 5 mg/mL elacridar. The final oral dose of elacridar was 50 mg/kg body weight. All dosing solutions were prepared freshly on the day of experiment.
# (§3) To minimize variation in absorption, mice were fasted for about 3 h before EAI045 was administered by gavage into the stomach (n = 5–6), using a blunt-ended needle. EAI045 was administered orally at dose of 20 mg/kg. Elacridar was administered orally at a dose of 50 mg/kg, 3 h prior to oral EAI045 administration. For the 24- or 4-h experiments, tail vein blood samplings were performed at 5 min, 30 min, 1, 2, 4, and 8 h, or 5 min, 15 min, 30 min, 1, and 2 h time points after oral administration of EAI045, respectively, using microvettes containing heparin. For the 30 min experiments, blood samplings were performed at 5, 10, and 20 min from the tail vein. At the last time point (24 h, 4 h, or 30 min), mice were anesthetized with isoflurane and blood was collected by cardiac puncture. Then, mice were sacrificed by cervical dislocation and brain, liver, spleen, kidneys, lung, small intestine with content (SIWC), and testis were rapidly removed and weighed. Tissues were homogenized on ice in appropriate volumes of 2% (w/v) BSA. Blood samples were centrifuged at 9000× g for 6 min at 4 °C immediately after collection. All samples were stored at −30 °C until analysis.
# [2] = mouse, in vivo; remark: listed apart in the source
# Protocol: We subsequently analyzed the single and combined effects of Abcb1 and Abcg2 deficiencies on EAI045 plasma pharmacokinetics and tissue accumulation using male WT, Abcg2^-/-, Abcb1a/1b^-/-, and Abcb1a/1b;Abcg2^-/- mice. As we wanted to assess tissue concentrations while plasma concentrations were still relatively high; we terminated this experiment at 30 min.
# as §1, §2, §3
# [3] = set-up: method as in PMID 28288939, PMID 30253203, PMID 31175939, PMID 33459177, PMID 35400324; details: reported; cited from earlier work
# [4] = after oral administration; no reference given; cited from earlier work
# human OATP1A2 = tested on: human OATP1A2; set-up: method as in PMID 31770475; details: cited from earlier work
# [5] = tested on: L858R/T790M EGFR mutant kinase; set-up: method as in PMID 27251290; details: cited from earlier work
compound,measurement,setting,value
O=C(O)C(c1cc(F)ccc1O)N1Cc2ccccc2C1=O (stereo not shown) [PIA],"PIA brain-to-plasma ratio, fold increase",[1],3.3 fold
same,"PIA kidney-to-plasma ratio, fold increase",[1],4.2 fold
same,"PIA liver-to-plasma ratio, fold decrease",[1],1.5 fold
same,"PIA SIWC%, fold decrease",[2],1.8 fold
same,"PIA SIWC%-to-plasma ratio, fold decrease",[2],2.7 fold
same,"amount of PIA retrieved from SIWC, % of the EAI045 dose",[2],~ 0.3%
same,PIA oral AUC0–30min among the strains,[2]; po,no meaningful differences
same,PIA/EAI045 AUC0–30min ratio,"[2]; po, 20 mg/kg",270-480%
same,PIA/EAI045 AUC ratio,"[2]; po, 20 mg/kg",about 400%
same,PIA brain-to-plasma ratio,"[2]; po, 20 mg/kg, 0.5 h",0.014
CN(C)C/C=C/C(=O)Nc1cc2c(Nc3ccc(F)c(Cl)c3)ncnc2cc1O[C@H]1CCOC1 [afatinib],increase in brain penetration in Abcb1a/1b;Abcg2-/- compared to WT mice,[3],28 fold
COc1cc(N2CCC(N3CCN(C)CC3)CC2)ccc1Nc1ncc(Cl)c(Nc2ccccc2P(C)(C)=O)n1 [brigatinib],increase in brain penetration in Abcb1a/1b;Abcg2-/- compared to WT mice,[3],38 fold
COc1cc2c(cc1OC)CN(CCc1ccc(NC(=O)c3cccc4c(=O)c5cccc(OC)c5[nH]c34)cc1)CC2 [elacridar],time of peak plasma concentration,[4],3 to 4 h
same,inhibition of human OATP1A2,human OATP1A2,reported to inhibit
C=CC(=O)Nc1cc(Nc2nccc(-c3cn(C)c4ccccc34)n2)c(OC)cc1N(C)CCN(C)C [osimertinib],increase in brain penetration in Abcb1a/1b;Abcg2-/- compared to WT mice,[3],6.4 fold
EAI001 [reference compound],potency against individual L858R and T790M mutants,[5],modest potency
